{"source": "patent US20230146870A1", "about": "“METHOD TO QUANTIFY AFFINITY AND SELECTIVITY OF SMALL MOLECULES FOR PROTEINS IN LIVING CELLS” (Ohio State Innovation Foundation, priority 2021, published 2023)", "target": "T1, native (untagged) murine PKCζ (Mus musculus, UniProt Q02956)", "T1 sequence (Q02956 1-592)": "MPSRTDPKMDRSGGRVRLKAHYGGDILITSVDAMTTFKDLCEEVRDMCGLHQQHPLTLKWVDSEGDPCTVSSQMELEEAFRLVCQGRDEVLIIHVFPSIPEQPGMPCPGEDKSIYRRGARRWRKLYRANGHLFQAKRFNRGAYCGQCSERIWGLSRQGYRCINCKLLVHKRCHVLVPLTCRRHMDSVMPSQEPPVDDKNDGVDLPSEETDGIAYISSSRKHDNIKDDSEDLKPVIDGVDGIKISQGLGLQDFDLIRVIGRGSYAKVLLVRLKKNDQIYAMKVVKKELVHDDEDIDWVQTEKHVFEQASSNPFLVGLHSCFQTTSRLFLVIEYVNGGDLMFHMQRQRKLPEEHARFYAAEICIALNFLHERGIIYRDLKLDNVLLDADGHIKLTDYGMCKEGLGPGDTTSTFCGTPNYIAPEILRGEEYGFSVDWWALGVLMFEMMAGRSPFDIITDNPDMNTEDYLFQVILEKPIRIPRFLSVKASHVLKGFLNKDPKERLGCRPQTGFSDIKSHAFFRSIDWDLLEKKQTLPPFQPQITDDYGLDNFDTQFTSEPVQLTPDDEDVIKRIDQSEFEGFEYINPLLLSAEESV", "test": "FPCBA saturation binding of probe 1, native PKCζ (IRES-mVenus) in HEK293 cells", "conditions": "BIM1 2 μM, 2 h at 37° C., 4% FBS", "note": "Entries after “also recorded” stand apart in the source; their conditions may differ.", "data": [{"smiles": "CCCCCCN(CCCCCCCCCCCCNC(=O)c1cc2cc(F)c(O)c(F)c2oc1=O)C(=O)O[C@@]12[C@H](O)[C@@H](C)[C@@]3(O)[C@@H](C=C(CO)C[C@]4(O)C(=O)C(C)=C[C@@H]34)[C@@H]1C2(C)C", "note": "[probe 1, (1aR,1bS,4aR,7aS,7bS,8R,9R,9aS)-4a,7b,9-trihydroxy-3-(hydroxymethyl)-1,1,6,8-tetramethyl-5-oxo-1,1a,1b,4,4a,5,7a,7b,8,9-decahydro-9aH-cyclopropa[3,4]benzo[1,2-e]azulen-9a-yl (12-(6,8-difluoro-7-hydroxy-2-oxo-2H-chromene-3-carboxamido)dodecyl)(hexyl)carbamate]", "values": [{"measurement": "Cellular Kd for probe, native PKCζ", "value": "did not bind; also recorded: No binding"}]}]}
